# In PubChem BioAssay AID2060488 (Molecular Pharmacology Branch, DTP, NCI, 2025):
# System: 966289-007-R4-J1-PDC complex spheroid viability
# Experiment: Anticancer human tumor 966289-007-R4-J1-PDC patient-derived pancreatic adenocarcinoma cell line growth inhibition [GQUAD]
# Conditions: for IC50: curve of first compound; for viability, T/C: stronger effect = lower value
# Outline: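 Tumor cells were grown as complex spheroids with HUVEC endothelial cells and mesenchymal stem cells as stroma. G-quadruplex stabilizers were combined with targeted agents over half-log dilutions from near the clinical Cmax, or from 10 microM.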
# [1] = second compound 0.0316 µM, first compound 0.0316 µM
# [2] = second compound 0.0316 µM, first compound 0.1 µM
# [3] = second compound 0.0316 µM, first compound 0.316 µM
# [4] = second compound 0.0316 µM, first compound 1 µM
# [5] = second compound 0.0316 µM, first compound 3.16 µM
# [6] = second compound 0.0316 µM, first compound 10 µM
# [7] = second compound 0.1 µM, first compound 0.0316 µM
# [8] = second compound 0.1 µM, first compound 0.1 µM
# [9] = second compound 0.1 µM, first compound 0.316 µM
# [10] = second compound 0.1 µM, first compound 1 µM
# [11] = second compound 0.1 µM, first compound 3.16 µM
# [12] = second compound 0.1 µM, first compound 10 µM
# [13] = second compound 0.316 µM, first compound 0.0316 µM
# [14] = second compound 0.316 µM, first compound 0.1 µM
# [15] = second compound 0.316 µM, first compound 0.316 µM
# [16] = second compound 0.316 µM, first compound 1 µM
# [17] = second compound 0.316 µM, first compound 3.16 µM
# [18] = second compound 0.316 µM, first compound 10 µM
# [19] = second compound 1 µM, first compound 0.0316 µM
# [20] = second compound 1 µM, first compound 0.1 µM
# [21] = second compound 1 µM, first compound 0.316 µM
# [22] = second compound 1 µM, first compound 1 µM
# [23] = second compound 1 µM, first compound 3.16 µM
# [24] = second compound 1 µM, first compound 10 µM
# [25] = second compound 3.16 µM, first compound 0.0316 µM
# [26] = second compound 3.16 µM, first compound 0.1 µM
# [27] = second compound 3.16 µM, first compound 0.316 µM
# [28] = second compound 3.16 µM, first compound 1 µM
# [29] = second compound 3.16 µM, first compound 3.16 µM
# [30] = second compound 3.16 µM, first compound 10 µM
# [31] = second compound 10 µM, first compound 0.0316 µM
# [32] = second compound 10 µM, first compound 0.1 µM
# [33] = second compound 10 µM, first compound 0.316 µM
# [34] = second compound 10 µM, first compound 1 µM
# [35] = second compound 10 µM, first compound 3.16 µM
# [36] = second compound 10 µM, first compound 10 µM
# 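Further: spheroids exposed to the agents for seven days before readout.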
# 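Wherever viability, T/C is given: percent viability relative to DMSO vehicle control wells taken as 100%.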
smiles,measurement,setting,value
C=CC(=O)N1CCN(c2nc(=O)n(-c3c(C)ccnc3C(C)C)c3nc(-c4c(O)cccc4F)c(F)cc23)C(C)C1 (stereo unspecified) + Cc1[nH]c2ccc(F)cc2c1-c1nc2c3cccnc3c3ncccc3c2[nH]1,IC50,second compound 0.0316 µM,> 10 µM
same,IC50,second compound 0.1 µM,> 10 µM
same,IC50,second compound 0.316 µM,> 10 µM
same,IC50,second compound 1 µM,> 10 µM
same,IC50,second compound 3.16 µM,> 10 µM
same,IC50,second compound 10 µM,> 10 µM
same,"viability, T/C",[1],99.9%
same,"viability, T/C",[2],94.1%
same,"viability, T/C",[3],103%
same,"viability, T/C",[4],93.8%
same,"viability, T/C",[5],105%
same,"viability, T/C",[6],107%
same,"viability, T/C",[7],105%
same,"viability, T/C",[8],96.6%
same,"viability, T/C",[9],103%
same,"viability, T/C",[10],95.2%
same,"viability, T/C",[11],102%
same,"viability, T/C",[12],114%
same,"viability, T/C",[13],97.4%
same,"viability, T/C",[14],99.7%
same,"viability, T/C",[15],90.3%
same,"viability, T/C",[16],106%
same,"viability, T/C",[17],104%
same,"viability, T/C",[18],111%
same,"viability, T/C",[19],95.4%
same,"viability, T/C",[20],103%
same,"viability, T/C",[21],105%
same,"viability, T/C",[22],98.4%
same,"viability, T/C",[23],86.1%
same,"viability, T/C",[24],109%
same,"viability, T/C",[25],101%
same,"viability, T/C",[26],101%
same,"viability, T/C",[27],111%
same,"viability, T/C",[28],100%
same,"viability, T/C",[29],108%
same,"viability, T/C",[30],101%
same,"viability, T/C",[31],99.2%
same,"viability, T/C",[32],98%
same,"viability, T/C",[33],104%
same,"viability, T/C",[34],101%
same,"viability, T/C",[35],94.4%
same,"viability, T/C",[36],76.8%
CC(C)n1c(=O)n(C)c2cnc3cc(F)c(-c4ccc(OCCCN5CCCCC5)nc4)cc3c21 + Cc1[nH]c2ccc(F)cc2c1-c1nc2c3cccnc3c3ncccc3c2[nH]1,IC50,second compound 0.0316 µM,> 10 µM
same,IC50,second compound 0.1 µM,> 10 µM
same,IC50,second compound 0.316 µM,> 10 µM
same,IC50,second compound 1 µM,> 10 µM
same,IC50,second compound 3.16 µM,> 10 µM
same,IC50,second compound 10 µM,> 10 µM
same,"viability, T/C",[1],112%
same,"viability, T/C",[2],101%
same,"viability, T/C",[3],110%
same,"viability, T/C",[4],101%
same,"viability, T/C",[5],109%
same,"viability, T/C",[6],82.4%
same,"viability, T/C",[7],104%
same,"viability, T/C",[8],101%
same,"viability, T/C",[9],109%
same,"viability, T/C",[10],105%
same,"viability, T/C",[11],110%
same,"viability, T/C",[12],89.1%
same,"viability, T/C",[13],99.8%
same,"viability, T/C",[14],110%
same,"viability, T/C",[15],106%
same,"viability, T/C",[16],111%
same,"viability, T/C",[17],105%
same,"viability, T/C",[18],85.9%
same,"viability, T/C",[19],104%
same,"viability, T/C",[20],108%
same,"viability, T/C",[21],109%
same,"viability, T/C",[22],109%
same,"viability, T/C",[23],109%
same,"viability, T/C",[24],85.5%
same,"viability, T/C",[25],102%
same,"viability, T/C",[26],107%
same,"viability, T/C",[27],110%
same,"viability, T/C",[28],104%
same,"viability, T/C",[29],105%
same,"viability, T/C",[30],62.2%
same,"viability, T/C",[31],103%
same,"viability, T/C",[32],104%
same,"viability, T/C",[33],107%
same,"viability, T/C",[34],104%
same,"viability, T/C",[35],94.9%
same,"viability, T/C",[36],61.8%
CC1COCCN1c1cc(C2(O)CC3CCC(C2)O3)c2cnn(-c3ccn[nH]3)c2n1 (stereo unspecified) + Cc1[nH]c2ccc(F)cc2c1-c1nc2c3cccnc3c3ncccc3c2[nH]1,IC50,second compound 0.0316 µM,0.117 µM
same,IC50,second compound 0.1 µM,0.112 µM
same,IC50,second compound 0.316 µM,0.134 µM
same,IC50,second compound 1 µM,0.131 µM
same,IC50,second compound 3.16 µM,0.0609 µM
same,IC50,second compound 10 µM,0.0506 µM
same,"viability, T/C",[1],112%
same,"viability, T/C",[2],55.6%
same,"viability, T/C",[3],13.9%
same,"viability, T/C",[4],5.11%
same,"viability, T/C",[5],4.75%
same,"viability, T/C",[6],3.95%
same,"viability, T/C",[7],111%
same,"viability, T/C",[8],53.8%
same,"viability, T/C",[9],14%
same,"viability, T/C",[10],5.55%
same,"viability, T/C",[11],4.82%
same,"viability, T/C",[12],4.44%
same,"viability, T/C",[13],105%
same,"viability, T/C",[14],63.2%
same,"viability, T/C",[15],11.7%
same,"viability, T/C",[16],5.9%
same,"viability, T/C",[17],4.9%
same,"viability, T/C",[18],4.84%
same,"viability, T/C",[19],98.5%
same,"viability, T/C",[20],61.1%
same,"viability, T/C",[21],14.2%
same,"viability, T/C",[22],5.99%
same,"viability, T/C",[23],4.35%
same,"viability, T/C",[24],4.34%
same,"viability, T/C",[25],81.8%
same,"viability, T/C",[26],25.1%
same,"viability, T/C",[27],11.7%
same,"viability, T/C",[28],5.99%
same,"viability, T/C",[29],6%
same,"viability, T/C",[30],4.42%
same,"viability, T/C",[31],71.7%
same,"viability, T/C",[32],18.7%
same,"viability, T/C",[33],6.61%
same,"viability, T/C",[34],5.67%
same,"viability, T/C",[35],4.73%
same,"viability, T/C",[36],4.11%
